# Results reported in patent US20250115622A1, “Crystalline Forms Of An MCL-1 Inhibitor” (AMGEN INC., priority 2022, published 2025).
# How the values were obtained:
# [1] = Moisture sorption (DVS) profile; type: physicochemical
# Procedure: Moisture Sorption: Moisture sorption data was collected using a VTI SGA 100 symmetrical vapor sorption analyzer. A sample size of approximately 5-10 mg was used in a platinum pan. Hygroscopicity was evaluated from 5 to 95% RH in increments of 5% RH. Data for adsorption and desorption cycles were collected. Equilibrium criteria were set at 0.001% weight change in 10 minutes with a maximum equilibration time of 180 minutes.
# [2] = Thermodynamic stability of solid form; type: physicochemical
# [3] = Solubility compared between crystalline forms; type: physicochemical; settings: relative to AMG 397 anhydrous form 4
# [4] = Bioavailability compared between crystalline forms; type: in vivo; settings: relative to AMG 397 anhydrous form 4
# Water content by KF = type: physicochemical
# Procedure: AMG 397 hydrate Form 7 was prepared by charging ˜4 g of AMG 397 with 1-propanol and then slurrying at 55° C. for 4 days. Isolated solids were subsequently dried under vacuum at 95-105° C. for 7 days. Water content by KF was 0.9% initially and 5.6% after equilibration at ambient conditions. DVS indicates variable water content to 0-12% based on environment.
structure (smiles),measurement,setting,value
CO[C@]1(CN2CCN3CCCC[C@@H]3C2)/C=C/C[C@H](C)[C@@H](C)S(=O)(=O)NC(=O)c2ccc3c(c2)N(C[C@@H]2CC[C@H]21)C[C@@]1(CCCc2cc(Cl)ccc21)CO3 [hydrate form 2],moisture sorption weight gain,[1]; by 95% relative humidity,3%
same,moisture sorption weight gain,"[1]; by 95% relative humidity, listed as crystalline hydrate form 2 of AMG 397",~3.0%
CO[C@]1(CN2CCN3CCCC[C@@H]3C2)/C=C/C[C@H](C)[C@@H](C)S(=O)(=O)NC(=O)c2ccc3c(c2)N(C[C@@H]2CC[C@H]21)C[C@@]1(CCCc2cc(Cl)ccc21)CO3 [anhydrous form 4],thermodynamic stability of form,[2],thermodynamically stable form
same,moisture sorption weight gain,[1]; by 95% relative humidity,4.5%
same,moisture sorption weight gain,"[1]; by 95% relative humidity, listed as crystalline anhydrous form 4 of AMG 397",~4.5%
CO[C@]1(CN2CCN3CCCC[C@@H]3C2)/C=C/C[C@H](C)[C@@H](C)S(=O)(=O)NC(=O)c2ccc3c(c2)N(C[C@@H]2CC[C@H]21)C[C@@]1(CCCc2cc(Cl)ccc21)CO3 [hydrate form 1],solubility,[3],higher
same,moisture sorption weight gain,[1]; by 95% relative humidity,3.3%
same,moisture sorption weight gain,"[1]; by 95% relative humidity, listed as crystalline hydrate form 1 of AMG 397",~3.3%
same,bioavailability,[4],higher
CO[C@]1(CN2CCN3CCCC[C@@H]3C2)/C=C/C[C@H](C)[C@@H](C)S(=O)(=O)NC(=O)c2ccc3c(c2)N(C[C@@H]2CC[C@H]21)C[C@@]1(CCCc2cc(Cl)ccc21)CO3 [hydrate form 3],moisture sorption weight gain,[1]; by 95% relative humidity,1.9%
same,moisture sorption weight gain,"[1]; by 95% relative humidity, listed as crystalline hydrate form 3 of AMG 397",~1.9%
CO[C@]1(CN2CCN3CCCC[C@@H]3C2)/C=C/C[C@H](C)[C@@H](C)S(=O)(=O)NC(=O)c2ccc3c(c2)N(C[C@@H]2CC[C@H]21)C[C@@]1(CCCc2cc(Cl)ccc21)CO3 [hydrate form 7],variable water content (DVS),[1]; based on environment,0-12%
same,moisture sorption weight gain,[1]; by 95% relative humidity,0-12%
same,variable water content (DVS),[1]; moisture sorption profile,0-12 % wt
same,water content by KF,Water content by KF; after equilibration at ambient conditions,5.6%
same,water content by KF,Water content by KF; initially,0.9%
CO[C@]1(CN2CCN3CCCC[C@@H]3C2)/C=C/C[C@H](C)[C@@H](C)S(=O)(=O)NC(=O)c2ccc3c(c2)N(C[C@@H]2CC[C@H]21)C[C@@]1(CCCc2cc(Cl)ccc21)CO3 [anhydrous form 6],moisture sorption weight gain,[1]; 50-95% relative humidity,10%
same,moisture sorption weight gain,[1]; between 0-50% relative humidity,0.5%
same,moisture sorption weight gain,[1]; by 95% relative humidity,10%
CO[C@]1(CN2CCN3CCCC[C@@H]3C2)/C=C/C[C@H](C)[C@@H](C)S(=O)(=O)NC(=O)c2ccc3c(c2)N(C[C@@H]2CC[C@H]21)C[C@@]1(CCCc2cc(Cl)ccc21)CO3 [amorphous AMG 397],moisture sorption weight gain,[1]; by 95% relative humidity,~6.4%
same,moisture sorption weight gain,"[1]; by 95% relative humidity, listed as amorphous form of AMG 397",6.4%
